The molecules below were run against T1, human GPR17 receptor (Homo sapiens, UniProt Q13304) (assay: Calcium mobilization functional assay (Fluo-8, FLIPR TETRA) in HEK-293 hGPR17 (Gα-q assay)). Conditions: antagonism of MDL29,951 (~EC80) induced Ca2+ signal; cell line (HEK-293 hGPR17 or HEK-293 Suchi5 hGPR17) not given.
T1 construct: host or cells: HEK-293
T1 sequence (Q13304 whole entry): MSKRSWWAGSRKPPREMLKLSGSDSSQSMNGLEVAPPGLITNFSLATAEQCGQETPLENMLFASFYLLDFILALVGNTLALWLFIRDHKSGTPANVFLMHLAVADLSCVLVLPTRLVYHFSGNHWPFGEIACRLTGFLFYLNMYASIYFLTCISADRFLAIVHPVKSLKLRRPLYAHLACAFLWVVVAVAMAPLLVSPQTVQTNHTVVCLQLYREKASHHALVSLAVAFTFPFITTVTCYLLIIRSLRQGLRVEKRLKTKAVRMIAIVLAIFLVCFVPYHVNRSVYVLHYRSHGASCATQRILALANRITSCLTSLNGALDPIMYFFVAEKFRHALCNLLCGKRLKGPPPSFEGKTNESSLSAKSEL
Type: cell-based
Summary of the method: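 Fluo-8-loaded HEK-293 hGPR17 cells (60 min dye loading, room temperature) were preincubated with compound for twenty minutes, then challenged with agonist MDL29,951 at ~EC80, 500 nM. Intracellular calcium release via Gα-q was recorded as FLIPR fluorescence for a further 2 minutes; compounds tested in duplicate.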
For `N#Cc1cc(F)c(NS(=O)(=O)c2c[nH]c(-c3cccc4ccsc34)c2)cc1F` [Cpd 572, 5-(1-benzothiophen-7-yl)-N-(4-cyano-2,5-difluorophenyl)-1H-pyrrole-3-sulfonamide], the IC50 was < 500 nM. Work on `O=S(=O)(Nc1cc(F)c(C(F)(F)F)cc1F)c1c[nH]c(-c2ncccc2CF)c1` [Cpd 573, N-[2,5-difluoro-4-(trifluoromethyl)phenyl]-5-[3-(fluoromethyl)pyridin-2-yl]-1H-pyrrole-3-sulfonamide] yielded an IC50 of 500 to 5000 nM. `N#Cc1cccc(Cc2c[nH]cc2S(=O)(=O)Nc2cc(F)c(C(F)(F)F)cc2F)c1` [Cpd 574, 4-[(3-cyanophenyl)methyl]-N-[2,5-difluoro-4-(trifluoromethyl)phenyl]-1H-pyrrole-3-sulfonamide] gave an IC50 of 500 to 5000 nM. `N#Cc1cc(F)c(NS(=O)(=O)c2c[nH]c(-c3cccc(Cl)n3)c2)cc1F` [Cpd 575, 5-(6-chloropyridin-2-yl)-N-(4-cyano-2,5-difluorophenyl)-1H-pyrrole-3-sulfonamide] was tested, and the IC50 was < 500 nM. Molecule `N#CCOc1cc(F)c(NS(=O)(=O)c2c[nH]c(-c3ccccc3)c2)cc1Cl` [Cpd 576, N-[5-chloro-4-(cyanomethoxy)-2-fluorophenyl]-5-phenyl-1H-pyrrole-3-sulfonamide] has an IC50 of 500 to 5000 nM. With `Cc1cc(F)cnc1-c1cc(S(=O)(=O)Nc2ccc(C#N)cc2F)c[nH]1` [Cpd 577, N-(4-cyano-2-fluorophenyl)-5-(5-fluoro-3-methylpyridin-2-yl)-1H-pyrrole-3-sulfonamide] the IC50 was < 500 nM. With `N#CCOc1cc(F)c(NS(=O)(=O)c2c[nH]c(C3CCC3)c2)cc1F` [Cpd 578, N-[4-(cyanomethoxy)-2,5-difluorophenyl]-5-cyclobutyl-1H-pyrrole-3-sulfonamide] the IC50 was < 500 nM. `O=S(=O)(Nc1cc(F)c(C(F)(F)F)cc1F)c1c[nH]c(-c2ncccc2C(F)F)c1` [Cpd 580, 5-[3-(difluoromethyl)pyridin-2-yl]-N-[2,5-difluoro-4-(trifluoromethyl)phenyl]-1H-pyrrole-3-sulfonamide] gave an IC50 of 500 to 5000 nM. `N#Cc1ccc(NS(=O)(=O)c2c[nH]c(-c3ncccc3C(F)F)c2)c(F)c1` [Cpd 581, N-(4-cyano-2-fluorophenyl)-5-[3-(difluoromethyl)pyridin-2-yl]-1H-pyrrole-3-sulfonamide] gave an IC50 of 5000 to 50000 nM. With `Cc1noc(C)c1-c1cc(S(=O)(=O)Nc2cc(F)c(C(F)(F)F)cc2F)c[nH]1` [Cpd 582, N-[2,5-difluoro-4-(trifluoromethyl)phenyl]-5-(3,5-dimethyl-1,2-oxazol-4-yl)-1H-pyrrole-3-sulfonamide] the IC50 was 500 to 5000 nM. In the case of `N#Cc1cc(F)c(NS(=O)(=O)c2c[nH]cc2Cc2ccc(F)cc2)cc1F` [Cpd 584, N-(4-cyano-2,5-difluorophenyl)-4-[(4-fluorophenyl)methyl]-1H-pyrrole-3-sulfonamide], the IC50 is reported as < 500 nM. With `N#Cc1cc(F)c(NS(=O)(=O)c2c[nH]cc2Cc2cccc(F)c2)cc1F` [Cpd 585, N-(4-cyano-2,5-difluorophenyl)-4-[(3-fluorophenyl)methyl]-1H-pyrrole-3-sulfonamide] the IC50 was < 500 nM. Molecule `N#Cc1cc(F)c(NS(=O)(=O)c2c[nH]cc2Cc2cccc(C3CC3)c2)cc1F` [Cpd 586, N-(4-cyano-2,5-difluorophenyl)-4-[(3-cyclopropylphenyl)methyl]-1H-pyrrole-3-sulfonamide] has an IC50 of 500 to 5000 nM. `N#Cc1ccc(NS(=O)(=O)c2c[nH]c(-c3ccccc3OC(F)(F)F)c2)c(F)c1` [Cpd 587, N-(4-cyano-2-fluorophenyl)-5-[2-(trifluoromethoxy)phenyl]-1H-pyrrole-3-sulfonamide] was tested, and the IC50 was 500 to 5000 nM. In the case of `N#Cc1cc(F)c(NS(=O)(=O)c2c[nH]c(-c3ccccc3OC(F)(F)F)c2)cc1F` [Cpd 588, N-(4-cyano-2,5-difluorophenyl)-5-[2-(trifluoromethoxy)phenyl]-1H-pyrrole-3-sulfonamide], the IC50 is reported as < 500 nM. `O=S(=O)(Nc1cc(F)c(C(F)(F)F)cc1F)c1c[nH]c(-c2ccccc2OC(F)(F)F)c1` [Cpd 589, N-[2,5-difluoro-4-(trifluoromethyl)phenyl]-5-[2-(trifluoromethoxy)phenyl]-1H-pyrrole-3-sulfonamide] showed an IC50 of 500 to 5000 nM. `O=S(=O)(Nc1cc(F)c(C(F)(F)F)cc1F)c1c[nH]cc1Cc1cccc(C2CC2)c1` [Cpd 590, 4-[(3-cyclopropylphenyl)methyl]-N-[2,5-difluoro-4-(trifluoromethyl)phenyl]-1H-pyrrole-3-sulfonamide] showed an IC50 of 5000 to 50000 nM. In the case of `O=S(=O)(Nc1cnsc1)c1c[nH]c(-c2ccccc2)c1` [Cpd 591, 5-phenyl-N-(1,2-thiazol-4-yl)-1H-pyrrole-3-sulfonamide], the IC50 is reported as 5000 to 50000 nM. For `N#Cc1ccc(NS(=O)(=O)c2c[nH]c(-c3ncccc3CF)c2)c(F)c1` [Cpd 592, N-(4-cyano-2-fluorophenyl)-5-[3-(fluoromethyl)pyridin-2-yl]-1H-pyrrole-3-sulfonamide], the IC50 was 500 to 5000 nM. `O=S(=O)(Nc1cc(F)cs1)c1c[nH]c(-c2ccccc2)c1` [Cpd 593, N-(4-fluorothiophene-2-yl)-5-phenyl-1H-pyrrole-3-sulfonamide] gave an IC50 of 500 to 5000 nM. In the case of `N#Cc1ccc(NS(=O)(=O)c2c[nH]c(-c3cscc3F)c2)c(F)c1` [Cpd 594, N-(4-cyano-2-fluorophenyl)-5-(4-fluorothiophene-3-yl)-1H-pyrrole-3-sulfonamide], the IC50 is reported as < 500 nM. With `Cc1nc(-c2cc(S(=O)(=O)Nc3cc(F)c(C(F)(F)F)cc3F)c[nH]2)cs1` [Cpd 595, N-[2,5-difluoro-4-(trifluoromethyl)phenyl]-5-(2-methyl-1,3-thiazol-4-yl)-1H-pyrrole-3-sulfonamide] the IC50 was 500 to 5000 nM. With `N#Cc1cc(F)c(NS(=O)(=O)c2c[nH]c(-c3ccc(F)c(Cl)c3)c2)cc1F` [Cpd 596, 5-(3-chloro-4-fluorophenyl)-N-(4-cyano-2,5-difluorophenyl)-1H-pyrrole-3-sulfonamide] the IC50 was 500 to 5000 nM. In the case of `O=S(=O)(Nc1cc(F)c(C(F)(F)F)cc1F)c1c[nH]c(-c2cncs2)c1` [Cpd 597, N-[2,5-difluoro-4-(trifluoromethyl)phenyl]-5-(1,3-thiazol-5-yl)-1H-pyrrole-3-sulfonamide], the IC50 is reported as < 500 nM. For `N#Cc1cc(F)c(NS(=O)(=O)c2c[nH]c(-c3nccs3)c2)cc1F` [Cpd 598, N-(4-cyano-2,5-difluorophenyl)-5-(1,3-thiazol-2-yl)-1H-pyrrole-3-sulfonamide], the IC50 was < 500 nM. `Cc1csc(-c2cc(S(=O)(=O)Nc3cc(F)c(C(F)(F)F)cc3F)c[nH]2)n1` [Cpd 599, N-[2,5-difluoro-4-(trifluoromethyl)phenyl]-5-(4-methyl-1,3-thiazol-2-yl)-1H-pyrrole-3-sulfonamide] was tested, and the IC50 was < 500 nM. In the case of `Cn1cccc(-c2cc(S(=O)(=O)Nc3ccc(C#N)cc3F)c[nH]2)c1=O` [Cpd 600, N-(4-cyano-2-fluorophenyl)-5-(1-methyl-2-oxopyridin-3-yl)-1H-pyrrole-3-sulfonamide], the IC50 is reported as 5000 to 50000 nM. Molecule `N#Cc1cc(F)c(NS(=O)(=O)c2c[nH]c(-c3ccccc3)c2)s1` [Cpd 601, N-(5-cyano-3-fluorothiophen-2-yl)-5-phenyl-1H-pyrrole-3-sulfonamide] has an IC50 of 500 to 5000 nM. `N#Cc1ccc(NS(=O)(=O)c2c[nH]c(-c3sccc3F)c2)c(F)c1` [Cpd 602, N-(4-cyano-2-fluorophenyl)-5-(3-fluorothiophen-2-yl)-1H-pyrrole-3-sulfonamide] was tested, and the IC50 was < 500 nM. For `CC(C)n1cccc(-c2cc(S(=O)(=O)Nc3ccc(C#N)cc3F)c[nH]2)c1=O` [Cpd 603, N-(4-cyano-2-fluorophenyl)-5-(2-oxo-1-propan-2-ylpyridin-3-yl)-1H-pyrrole-3-sulfonamide], the IC50 was 5000 to 50000 nM. In the case of `N#Cc1ccc(NS(=O)(=O)c2c[nH]c(-c3cccn(C(F)F)c3=O)c2)c(F)c1` [Cpd 604, N-(4-cyano-2-fluorophenyl)-5-[1-(difluoromethyl)-2-oxopyridin-3-yl]-1H-pyrrole-3-sulfonamide], the IC50 is reported as 500 to 5000 nM. With `N#Cc1cc(F)c(NS(=O)(=O)c2c[nH]cc2Cc2cc(F)cc(Cl)c2)cc1F` [Cpd 605, 4-[(3-chloro-5-fluorophenyl)methyl]-N-(4-cyano-2,5-difluorophenyl)-1H-pyrrole-3-sulfonamide] the IC50 was 500 to 5000 nM. With `Cc1cnc(-c2cc(S(=O)(=O)Nc3cc(F)c(C(F)(F)F)cc3F)c[nH]2)s1` [Cpd 606, N-[2,5-difluoro-4-(trifluoromethyl)phenyl]-5-(5-methyl-1,3-thiazol-2-yl)-1H-pyrrole-3-sulfonamide] the IC50 was 500 to 5000 nM. Work on `N#Cc1cnc(-c2cc(S(=O)(=O)Nc3cc(F)c(C(F)(F)F)cc3F)c[nH]2)s1` [Cpd 607, 5-(5-cyano-1,3-thiazol-2-yl)-N-[2,5-difluoro-4-(trifluoromethyl)phenyl]-1H-pyrrole-3-sulfonamide] yielded an IC50 of 5000 to 50000 nM. With `N#Cc1ccc(NS(=O)(=O)c2c[nH]cc2Cc2ccc3c(c2)OCC3)c(F)c1` [Cpd 608, N-(4-cyano-2-fluorophenyl)-4-(2,3-dihydro-1-benzofuran-6-ylmethyl)-1H-pyrrole-3-sulfonamide] the IC50 was 5000 to 50000 nM. For `N#Cc1ccc(NS(=O)(=O)c2c[nH]c(F)c2Cc2ccccc2)c(F)c1` [Cpd 609, 4-benzyl-N-(4-cyano-2-fluorophenyl)-5-fluoro-1H-pyrrole-3-sulfonamide], the IC50 was 500 to 5000 nM. With `N#Cc1ccc(NS(=O)(=O)c2c[nH]c(-c3nccs3)c2)c(F)c1` [Cpd 610, N-(4-cyano-2-fluorophenyl)-5-(1,3-thiazol-2-yl)-1H-pyrrole-3-sulfonamide] the IC50 was < 500 nM. In the case of `O=S(=O)(Nc1cc(F)c(OC(F)F)cc1F)c1c[nH]c(-c2nnco2)c1` [Cpd 611, N-[4-(difluoromethoxy)-2,5-difluorophenyl]-5-(1,3,4-oxadiazol-2-yl)-1H-pyrrole-3-sulfonamide], the IC50 is reported as 500 to 5000 nM. For `[2H]c1ccc(-c2cc(S(=O)(=O)Nc3ccc(C#N)cc3F)c[nH]2)cc1` [Cpd 612, N-(4-cyano-2-fluorophenyl)-5-(4-deuteriophenyl)-1H-pyrrole-3-sulfonamide], the IC50 was < 500 nM. For `O=S(=O)(Nc1cc(F)c(OC(F)F)cc1F)c1c[nH]c(-c2ncns2)c1` [Cpd 613, N-[4-(difluoromethoxy)-2,5-difluorophenyl]-5-(1,2,4-thiadiazol-5-yl)-1H-pyrrole-3-sulfonamide], the IC50 was 500 to 5000 nM.

From US20240299385A1 (ReWind Therapeutics NV, priority 2021, published 2024)
